Results reported in patent US20250197864A1, “LNCRNA TRANSCRIPTS IN MELANOMAGENESIS” (The Regents of the University of California, priority 2021, published 2025).

System: gene expression in D04 melanoma cells
Test: RNA-Seq differential expression analysis (DESeq2)
Format: cell-based, human
Description: Total RNA was isolated using the RNeasy mini Kit (QIAGEN) following the manufacturer's protocol. Quality check for extracted RNA was done using 2100 Bioanalyzer (Agilent Technologies, USA) or Tapestation System (Agilent Technologies, USA). […] For samples used for identification of MAPK-responsive lncRNAs, paired-end, 101-bp sequencing was performed by Centrillion Genomic Services (Centrillion Biosciences, USA) on an Illumina HiSeq 2000. For DE gene analysis of ASO-transfected D04 samples, paired-end, 2×150-bp sequencing was performed by Genewiz (USA) on a Illumina HiSeq.
Sequence reads were aligned to the human genome (hg19) using TopHat (Version 2.0.11).
Differential expression (DE) analysis was done using DESeq2. Differentially expressed genes were defined by more than 1.5-fold changes (log 2 >0.58 or <−0.58) in expression with FDR<0.05. GO term analysis was done using DAVID Functional Annotation Clustering analysis.
To examine the biomolecular changes upon TRASH-inhibition in melanoma, D04 cells were treated with TRASH-ASOs (SEQ ID NO:15) and Control-ASOs and RNA was extracted and used for RNA-Seq. […] These GO terms consisted of genes encoding growth factors, tyrosine kinases, G protein coupled receptor subunits, and collagen subunits. Scatter plot diagram showing differential gene expression after TRASH-ASO treatment compared to Control-ASO treatment. (cut-off for significance was adjusted p-value <0.05). Data was obtained from RNA-Seq of D04 melanoma cells, treatment period was three days. (FIG. 5c)

GACTGGAGATAATTAA (gapmer, pattern not given here) [SEQ ID NO: 15, GapmeR ASO targeting AC004540.4 (TRASH), exon region of both isoforms; used for in vitro experiments]
log2FoldChange (44256 (ENSG00000186205)): 1.274 | log2FoldChange (44259 (ENSG00000144583)): 2.095 | log2FoldChange (A2M (ENSG00000175899)): −0.6461 | log2FoldChange (AADACP1 (ENSG00000240602)): 1.744 | log2FoldChange (AAGAB (ENSG00000103591)): −0.6248 | log2FoldChange (AAMDC (ENSG00000087884)): −0.6077 | log2FoldChange (ABCA7 (ENSG00000064687)): −0.6185 | log2FoldChange (AC004817.3 (ENSG00000269927)): 1.303 | log2FoldChange (AC004949.1 (ENSG00000283117)): −0.6056 | log2FoldChange (AC005144.1 (ENSG00000283517)): 1.578 | log2FoldChange (AC006058.1 (ENSG00000261786)): −0.7044 | log2FoldChange (AC009502.2 (ENSG00000231802)): 1.847 | log2FoldChange (AC010735.1 (ENSG00000261379)): −0.6617 | log2FoldChange (AC010735.2 (ENSG00000272622)): −0.6927 | log2FoldChange (AC011944.1 (ENSG00000177699)): 1.481 | log2FoldChange (AC022007.1 (ENSG00000206567)): −0.6327 | log2FoldChange (AC022031.2 (ENSG00000267284)): −0.6353 | log2FoldChange (AC048341.1 (ENSG00000257354)): −0.6321 | log2FoldChange (AC073130.1 (ENSG00000237870)): 1.474 | log2FoldChange (AC090192.2 (ENSG00000253227)): 1.561 | log2FoldChange (AC090204.1 (ENSG00000247134)): −0.6895 | log2FoldChange (AC090505.1 (ENSG00000234805)): 1.656 | log2FoldChange (AC099552.1 (ENSG00000217825)): 2.619 | log2FoldChange (AC105942.1 (ENSG00000235501)): −0.6072 | log2FoldChange (AC117386.2 (ENSG00000243944)): −0.661 | log2FoldChange (AC131254.1 (ENSG00000248964)): 2 | log2FoldChange (AC133785.1 (ENSG00000233221)): 1.627 | log2FoldChange (AC135782.1 (ENSG00000256982)): 1.563 | log2FoldChange (AC139491.2 (ENSG00000248596)): 1.322 | log2FoldChange (AC237221.1 (ENSG00000260653)): 1.665 | log2FoldChange (AC245041.1 (ENSG00000273760)): 1.261 | log2FoldChange (ACTBL2 (ENSG00000169067)): −0.6731 | log2FoldChange (ACTR3C (ENSG00000106526)): −0.7012 | log2FoldChange (ADCYAP1R1 (ENSG00000078549)): 2.87 | log2FoldChange (ADGRA2 (ENSG00000020181)): −0.7029 | log2FoldChange (ADGRB1 (ENSG00000181790)): 1.472 | log2FoldChange (ADGRE4P (ENSG00000268758)): 1.451 | log2FoldChange (ADPRHL1 (ENSG00000153531)): 3.706 | log2FoldChange (ADRB2 (ENSG00000169252)): 1.354 | log2FoldChange (AHNAK2 (ENSG00000185567)): 1.379 | log2FoldChange (AHR (ENSG00000106546)): −0.6391 | log2FoldChange (AKNAD1 (ENSG00000162641)): 1.238 | log2FoldChange (AL161431.1 (ENSG00000275216)): 1.631 | log2FoldChange (AL356234.3 (ENSG00000283265)): 2.668 | log2FoldChange (AL365181.2 (ENSG00000272068)): 1.422 | log2FoldChange (AL390334.1 (ENSG00000258932)): −0.6259 | log2FoldChange (AL512488.1 (ENSG00000230439)): 1.824 | log2FoldChange (AL590004.4 (ENSG00000260604)): 1.853 | log2FoldChange (ALMS1-IT1 (ENSG00000230002)): 1.247 | log2FoldChange (ALOXE3 (ENSG00000179148)): 4.94 | log2FoldChange (ALPI (ENSG00000163295)): 7.153 | log2FoldChange (ANKH (ENSG00000154122)): −0.6414 | log2FoldChange (ANO2 (ENSG00000047617)): 2.643 | log2FoldChange (ANXA8 (ENSG00000265190)): 1.513 | log2FoldChange (ANXA8L1 (ENSG00000264230)): 1.299 | log2FoldChange (APOA4 (ENSG00000110244)): 7.547 | log2FoldChange (APOE (ENSG00000130203)): −0.6001 | log2FoldChange (AQP1 (ENSG00000240583)): −0.6784 | log2FoldChange (ARC (ENSG00000198576)): 1.257 | log2FoldChange (ARHGDIB (ENSG00000111348)): 1.501 | log2FoldChange (ARSA (ENSG00000100299)): −0.6363 | log2FoldChange (ATG9B (ENSG00000181652)): 1.674 | log2FoldChange (ATP2B2 (ENSG00000157087)): 2.6809 | log2FoldChange (B3GALT5 (ENSG00000183778)): 3.38 | log2FoldChange (B4GALNT3 (ENSG00000139044)): −0.6558 | log2FoldChange (BAALC-AS1 (ENSG00000247081)): −0.5946 | log2FoldChange (BEX5 (ENSG00000184515)): 1.778 | log2FoldChange (BHLHB9 (ENSG00000198908)): −0.6347 | log2FoldChange (BIRC7 (ENSG00000101197)): 1.54 | log2FoldChange (BVES (ENSG00000112276)): −0.7008 | log2FoldChange (C1orf21 (ENSG00000116667)): −0.5945 | log2FoldChange (C1orf116 (ENSG00000182795)): 1.382 | log2FoldChange (C3 (ENSG00000125730)): −0.6635 | log2FoldChange (C5 (ENSG00000106804)): −0.69 | log2FoldChange (C7orf57 (ENSG00000164746)): 1.917 | log2FoldChange (C7orf69 (ENSG00000136275)): −0.6813 | log2FoldChange (C10orf55 (ENSG00000222047)): 2.331 | log2FoldChange (C10orf90 (ENSG00000154493)): −0.626 | log2FoldChange (C11orf86 (ENSG00000173237)): 1.233 | log2FoldChange (C15orf54 (ENSG00000175746)): 1.489 | log2FoldChange (C16orf45 (ENSG00000166780)): −0.6742 | log2FoldChange (CACNA1D (ENSG00000157388)): −0.6311 | log2FoldChange (CACNA1H (ENSG00000196557)): 1.733 | log2FoldChange (CALB2 (ENSG00000172137)): 1.839 | log2FoldChange (CARMIL1 (ENSG00000079691)): −0.6828 | log2FoldChange (CASC9 (ENSG00000249395)): −0.6279 | log2FoldChange (CASTOR3 (ENSG00000239521)): −0.6683
